# According to patent US8362263B2 (CJ Cheiljedang Corporation, priority 2006, dated 2013):
# Where a name gives a salt, the structure may show the parent alone.
# What was measured:
# [1] = Thermal stability in liquid state (distilled water, 25° C., dark, 4 weeks); type: physicochemical; details: dissolved in distilled water, 4 weeks at 25° C. in the dark
# Procedure: (§1) <HPLC Analysis Condition> • Detector: UV absorbance (at 237 nm), • Column: Octadecyl silica gel C18 (4.6 mm×150 mm, 5[…]), • mobile phase: Potassium dihydrogen phosphate monobasic (0.03 M): Methanol=4:6 (by volume) • Flow rate: 1.5 ml/min.
# The observation was made under the same conditions as in the HPLC analysis for evaluating the thermal stability of samples in a solid state.
# [2] = Hygroscopicity test (K.F. water content under various humidity); type: physicochemical; details: 25° C.; for hygroscopicity (in words): various humidity conditions
# [3] = Thermal stability in solid state, acceleration test at 60° C. (HPLC content); type: physicochemical
# Procedure: as §1
# physchem = details: 25 °C
# [4] = Photostability test (ICH photostable chamber, 25° C., 4 weeks, HPLC content); type: physicochemical; details: 4 weeks at 25° C., light source
# Procedure: as §1
# An observation was made of content (HPLC) change under the same conditions as in the HPLC analysis for evaluating the thermal stability of samples.
SMILES,content change in liquid state (in words) [1],"water content (K.F. moisture %) ([2]; 25% RH, Post 1 Week) [%]","water content (K.F. moisture %) ([2]; 60% RH, Post 1 Week) [%]","water content (K.F. moisture %) ([2]; 75% RH, Post 1 Week) [%]","water content (K.F. moisture %) ([2]; 95% RH, Post 1 Week) [%]",water content (K.F. moisture %) ([2]; Initial) [%],hygroscopicity (in words) [2],content change in 60° C. acceleration test (in words) [3],"solubility (physchem; pH 1.2, simulated gastric fluid) [mg/mL]","solubility (physchem; pH 4, aqueous buffer) [mg/mL]","solubility (physchem; pH 6.8, aqueous buffer) [mg/mL]",solubility (physchem; water) [mg/mL],"water content (K.F. moisture %) ([2]; 95% RH, Post 1 Week, listed as Example 2) [%]",appearance on light exposure [4]
"CCOC(=O)C1=C(COCCN)NC(C)=C(C(=O)OC)C1c1ccccc1Cl.O=C(O)CCCCC(=O)O (racemic) [C. Ex. 2, crystalline racemic amlodipine adipic acid salt anhydrous, reference compound]",no significant content changes,0.10,0.09,0.15,0.17,0.10,no hygroscopicity,little change in content,,,,,,
"CCOC(=O)C1=C(COCCN)NC(C)=C(C(=O)OC)[C@@H]1c1ccccc1Cl [Ex. 1, crystalline S-(−)-amlodipine adipic acid salt anhydrous]",no significant content changes,0.15,0.15,0.14,0.16,0.15,no hygroscopicity,little change in content,81.7,57.1,41.3,18.6,,
"CCOC(=O)C1=C(COCCN)NC(C)=C(C(=O)OC)[C@@H]1c1ccccc1Cl [Ex. 2, hygroscopic crystalline S-(−)-amlodipine adipic acid salt anhydrous]",,0.8,0.9,1.3,1.62,0.7,,,,,,,1.62,
"CCOC(=O)C1=C(COCCN)NC(C)=C(C(=O)OC)[C@@H]1c1ccccc1Cl.CCOC(=O)C1=C(COCCN)NC(C)=C(C(=O)OC)[C@@H]1c1ccccc1Cl.O.O.O.O.O.O=S(=O)(O)c1ccccc1.O=S(=O)(O)c1ccccc1 [C. Ex. 1, S-(−)-amlodipine besylate 2.5 hydrate, reference compound]",no significant content changes,7.55,7.6,7.85,7.9,7.8,high in water content from the beginning,little change in content,,,,,,turned yellow from white
